Measurements from the NIST ThermoML archive (doi:10.1016/j.fluid.2006.09.025).

Assay: osmotic coefficient (dimensionless); mn = molality of the nth substance listed, in mol/kg
Conditions: 298.15 K, Liquid, isopiestic method

CC[N+](CC)(CC)C(C)C.[I-] [triethylisopropylammonium iodide] + O
Conditions | osmotic coefficient
m1 = 0.0475 | 0.9777
m1 = 0.057 | 0.9749
m1 = 0.0757 | 0.9713
m1 = 0.0889 | 0.968
m1 = 0.0981 | 0.9643
m1 = 0.1471 | 0.9579
m1 = 0.1528 | 0.9563
m1 = 0.1597 | 0.9537
m1 = 0.1682 | 0.9525
m1 = 0.1838 | 0.9459
m1 = 0.2194 | 0.9398
m1 = 0.2793 | 0.9267
m1 = 0.3108 | 0.918
m1 = 0.3581 | 0.9067
m1 = 0.408 | 0.88
m1 = 0.4103 | 0.884
m1 = 0.4322 | 0.8735
m1 = 0.4691 | 0.8589
m1 = 0.5492 | 0.825
m1 = 0.6807 | 0.762
m1 = 0.6907 | 0.751
m1 = 0.7103 | 0.74
m1 = 0.8103 | 0.691
m1 = 0.9083 | 0.662
m1 = 0.9858 | 0.631
m1 = 1.081 | 0.589
m1 = 1.111 | 0.587
m1 = 1.22 | 0.559
m1 = 1.326 | 0.546
m1 = 1.388 | 0.541
m1 = 1.402 | 0.539
m1 = 1.428 | 0.535
m1 = 1.448 | 0.533
m1 = 1.462 | 0.53

CCCCCCC[N+](CC)(CC)CC.[I-] [heptyltriethylammonium iodide] + O
Conditions | osmotic coefficient
m1 = 0.0575 | 0.8694
m1 = 0.077 | 0.84
m1 = 0.0876 | 0.829
m1 = 0.1022 | 0.815
m1 = 0.1082 | 0.805
m1 = 0.1205 | 0.787
m1 = 0.1533 | 0.757
m1 = 0.1727 | 0.742
m1 = 0.175 | 0.736
m1 = 0.1805 | 0.723
m1 = 0.2592 | 0.67
m1 = 0.2917 | 0.642
m1 = 0.3136 | 0.635
m1 = 0.3583 | 0.614
m1 = 0.4282 | 0.58
m1 = 0.4477 | 0.577
m1 = 0.4858 | 0.553
m1 = 0.5029 | 0.548
m1 = 0.5121 | 0.54
m1 = 0.5894 | 0.52
m1 = 0.6973 | 0.486
m1 = 0.787 | 0.45
m1 = 0.8401 | 0.434
m1 = 0.89 | 0.427
m1 = 1.105 | 0.384
m1 = 1.341 | 0.34
m1 = 1.504 | 0.325
m1 = 1.803 | 0.297
m1 = 1.921 | 0.289
m1 = 2.205 | 0.263
m1 = 2.515 | 0.253
m1 = 2.79 | 0.247
m1 = 2.96 | 0.24
m1 = 3 | 0.242

CC[N+](C)(CC)CC.[I-] [methyltriethylammonium iodide] + O
Conditions | osmotic coefficient
m1 = 0.0478 | 0.739
m1 = 0.0576 | 0.714
m1 = 0.0766 | 0.673
m1 = 0.0902 | 0.648
m1 = 0.0995 | 0.632
m1 = 0.1505 | 0.564
m1 = 0.1558 | 0.556
m1 = 0.1631 | 0.548
m1 = 0.1721 | 0.539
m1 = 0.1879 | 0.523
m1 = 0.2254 | 0.488
m1 = 0.2898 | 0.44
m1 = 0.324 | 0.421
m1 = 0.3742 | 0.391
m1 = 0.4177 | 0.371
m1 = 0.4237 | 0.368
m1 = 0.4447 | 0.36
m1 = 0.4801 | 0.347
m1 = 0.5528 | 0.321
m1 = 0.6505 | 0.294
m1 = 0.6561 | 0.295
m1 = 0.6693 | 0.291
m1 = 0.7286 | 0.28
m1 = 0.8032 | 0.265
m1 = 0.8482 | 0.259
m1 = 0.8851 | 0.255
m1 = 0.9205 | 0.249
m1 = 0.9981 | 0.241
m1 = 1.101 | 0.232
m1 = 1.2 | 0.226
m1 = 1.22 | 0.224
m1 = 1.25 | 0.223
m1 = 1.29 | 0.22
m1 = 1.37 | 0.219

CCCC[N+](CC)(CC)CC.[I-] [butyltriethylammonium iodide] + O
Conditions | osmotic coefficient
m1 = 0.0475 | 0.9775
m1 = 0.0571 | 0.9735
m1 = 0.076 | 0.9668
m1 = 0.0898 | 0.9582
m1 = 0.0991 | 0.9545
m1 = 0.1499 | 0.94
m1 = 0.1571 | 0.93
m1 = 0.1638 | 0.9298
m1 = 0.1729 | 0.9266
m1 = 0.189 | 0.9199
m1 = 0.2281 | 0.9038
m1 = 0.293 | 0.8831
m1 = 0.3288 | 0.8677
m1 = 0.38 | 0.8544
m1 = 0.4288 | 0.837
m1 = 0.435 | 0.834
m1 = 0.4582 | 0.824
m1 = 0.5067 | 0.795
m1 = 0.5888 | 0.77
m1 = 0.7326 | 0.708
m1 = 0.7462 | 0.695
m1 = 0.76 | 0.691
m1 = 0.855 | 0.655
m1 = 0.9926 | 0.606
m1 = 1.093 | 0.569
m1 = 1.132 | 0.562
m1 = 1.178 | 0.554
m1 = 1.305 | 0.523
m1 = 1.503 | 0.481
m1 = 1.645 | 0.456
m1 = 1.681 | 0.45
m1 = 1.738 | 0.439
m1 = 1.782 | 0.433
m1 = 1.811 | 0.428
